Data from patent publication US10323038B2, “Pyrazole compounds and methods of making and using same” (ABIDE THERAPEUTICS, INC., priority 2015, dated 2019).

Experiments:
MAGL = MAGL (Mus musculus (Mouse), UniProt O35678); test: In vitro competitive activity-based protein profiling, MAGL (mouse); format: biochemical; conditions: for inhibition at 1 µM: read-out: MAGL % inh. 1 μM (mouse)
Outline: (§1)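 Proteomes at 1.0 mg/mL protein (mouse brain membranes or cell lysates; human prefrontal cortex or cell membranes) preincubated with inhibitor 30 min at 37 °C. Then FP-Rh or HT-01 probe (50 μM stock) added for 30 min at 37 °C. MAGL and FAAH activity measured by SDS-PAGE band fluorescence.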

FAAH = FAAH (Mus musculus (Mouse), UniProt O08914); test: In vitro competitive activity-based protein profiling, FAAH (mouse); format: biochemical; conditions: for inhibition at 1 µM: read-out: FAAH % inh. 1 μM (mouse)
FAAH, sequence (O08914 whole entry): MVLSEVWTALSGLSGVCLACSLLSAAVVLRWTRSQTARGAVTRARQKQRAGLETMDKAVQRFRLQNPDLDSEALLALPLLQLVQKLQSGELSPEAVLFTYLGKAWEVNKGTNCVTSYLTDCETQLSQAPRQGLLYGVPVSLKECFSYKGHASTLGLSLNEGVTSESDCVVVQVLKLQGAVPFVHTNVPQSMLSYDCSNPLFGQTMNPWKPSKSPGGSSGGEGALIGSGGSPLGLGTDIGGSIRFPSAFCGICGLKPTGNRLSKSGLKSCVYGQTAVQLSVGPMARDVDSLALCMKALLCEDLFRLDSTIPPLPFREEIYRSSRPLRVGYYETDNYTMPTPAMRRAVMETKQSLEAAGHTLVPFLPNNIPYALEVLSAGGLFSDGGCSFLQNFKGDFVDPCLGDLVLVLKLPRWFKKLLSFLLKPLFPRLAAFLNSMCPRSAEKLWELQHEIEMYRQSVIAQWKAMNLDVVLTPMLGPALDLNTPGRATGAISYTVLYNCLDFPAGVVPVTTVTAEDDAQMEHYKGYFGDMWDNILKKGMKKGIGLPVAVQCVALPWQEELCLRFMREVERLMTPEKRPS
Outline: as §1

MAGL, sequence (O35678 whole entry): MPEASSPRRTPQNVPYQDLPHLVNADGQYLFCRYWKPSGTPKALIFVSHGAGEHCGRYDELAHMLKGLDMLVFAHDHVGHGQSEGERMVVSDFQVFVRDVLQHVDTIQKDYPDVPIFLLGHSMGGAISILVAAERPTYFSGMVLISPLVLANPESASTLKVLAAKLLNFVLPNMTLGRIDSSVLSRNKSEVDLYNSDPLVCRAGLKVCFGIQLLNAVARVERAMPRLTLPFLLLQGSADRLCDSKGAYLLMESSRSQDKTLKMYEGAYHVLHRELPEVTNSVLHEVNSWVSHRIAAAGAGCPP

| inhibition at 1 µM (MAGL) | inhibition at 1 µM (FAAH) | IC50 (MAGL) | IC50 (FAAH) | Compound |
| --- | --- | --- | --- | --- |
| ≥ 75% | ≥ 75% | 100 to 1000 nM | 100 to 1000 nM | CC(=O)N(C)c1cnn(C(=O)N2CCN(Cc3ccc(N4CCCC4)cc3)CC2)c1 [Example 197, N-methyl-N-(1-(4-(4-(pyrrolidin-1-yl)benzyl)piperazine-1-carbonyl)-1H-pyrazol-4-yl)acetamide] |
| ≥ 75% | ≥ 75% | 100 to 1000 nM | 100 to 1000 nM | CC(=O)N(C)c1cnn(C(=O)N2CCN(Cc3cccc(Cl)c3)CC2)c1 [Example 193, N-(1-(4-(3-chlorobenzyl)piperazine-1-carbonyl)-1H-pyrazol-4-yl)-N-methylacetamide] |
| ≥ 75% | 25 to 50% |  |  | CC(=O)N(C)c1cnn(C(=O)N2CCC3(CC2)CN(Cc2ccc(C)cc2)C3)c1 [Example 32, N-methyl-N-(1-(2-(4-methylbenzyl)-2,7-diazaspiro[3.5]nonane-7-carbonyl)-1H-pyrazol-4-yl)acetamide] |
| 25 to 50% | ≥ 75% | 1000 to 10000 nM | 100 to 1000 nM | CC(=O)N(C)c1cnn(C(=O)N2CC3(CCN(Cc4ccc(N5CCOCC5)cc4Cl)CC3)C2)c1 [Example 22, N-(1-(7-(2-chloro-4-morpholinobenzyl)-2,7-diazaspiro[3.5]nonane-2-carbonyl)-1H-pyrazol-4-yl)-N-methylacetamide] |
| ≥ 75% | ≥ 75% |  |  | COc1cccc(CN2CCN(C(=O)n3cc(N(C)C(C)=O)cn3)CC2)c1 [Example 207, N-(1-(4-(3-methoxybenzyl)piperazine-1-carbonyl)-1H-pyrazol-4-yl)-N-methylacetamide] |
| ≥ 75% | ≥ 75% | ≤ 100 nM | 100 to 1000 nM | CC(=O)N(C)c1cnn(C(=O)N2CCC3(CC2)CN(Cc2ccc(-c4ccccc4)cc2C)C3)c1 [Example 226, N-methyl-N-(1-(2-((3-methyl-[1,1-biphenyl]-4-yl)methyl)-2,7-diazaspiro[3.5]nonane-7-carbonyl)-1H-pyrazol-4-yl)acetamide] |
| ≥ 75% | ≥ 75% | 100 to 1000 nM | 100 to 1000 nM | CC(=O)N(C)c1cnn(C(=O)N2CCC3(CCN(Cc4ccc(C(F)(F)F)cc4)C3)C2)c1 (centres unmarked) [Example 2, N-methyl-N-(1-(7-(4-(trifluoromethyl)benzyl)-2,7-diazaspiro[4.4]nonane-2-carbonyl)-1H-pyrazol-4-yl)acetamide] |
| ≥ 75% | ≥ 75% |  |  | CC(=O)N(C)c1cnn(C(=O)N2CCC3(CCN(Cc4cc(C(F)(F)F)ccc4Cl)C3)C2)c1 (centres unmarked) [Example 71, N-(1-(7-(2-chloro-5-(trifluoromethyl)benzyl)-2,7-diazaspiro[4.4]nonane-2-carbonyl)-1H-pyrazol-4-yl)-N-methylacetamide] |
| ≥ 75% | ≥ 75% | ≤ 100 nM | 100 to 1000 nM | CC(=O)N(C)c1cnn(C(=O)N2CCN(Cc3cccc(C)c3)CC2)c1 [Example 206, N-methyl-N-(1-(4-(3-methylbenzyl)piperazine-1-carbonyl)-1H-pyrazol-4-yl)acetamide] |

More lines, now with the values behind:

| Compound | inhibition at 1 µM (MAGL) | inhibition at 1 µM (FAAH) | IC50 (MAGL) | IC50 (FAAH) |
| --- | --- | --- | --- | --- |
| CC(=O)Nc1cnn(C(=O)N2CC3CN(Cc4cc(Cl)cc(C(F)(F)F)c4)CC3C2)c1 (centres unmarked) [Example 315, N-(1-(5-(3-chloro-5-(trifluoromethyl)benzyl)octahydropyrrolo [3,4-c]pyrrole-2-carbonyl)-1H-pyrazol-4-yl)acetamide] | ≥ 75% | ≥ 75% |  |  |
| CC(=O)N(C)c1cnn(C(=O)N2CC3CN(Cc4ccc(OCc5ccccc5)cc4)CC3C2)c1 (centres unmarked) [Example 248, N-(1-(5-(4-(benzyloxy)benzyl)octahydropyrrolo[3,4-c]pyrrole-2-carbonyl)-1H-pyrazol-4-yl)-N-methylacetamide] | ≥ 75% | ≥ 75% | ≤ 100 nM | ≤ 100 nM |
| CC(=O)N(C)c1cnn(C(=O)N2CC3CN(Cc4ccc(N5CCOCC5)cc4Cl)CC3C2)c1 (centres unmarked) [Example 16, N-(1-(5-(2-chloro-4-morpholinobenzyl)octahydropyrrolo[3,4-c]pyrrole-2-carbonyl)-1H-pyrazol-4-yl)-N-methylacetamide] | ≥ 75% | ≥ 75% | ≤ 100 nM | ≤ 100 nM |
| CC(=O)N(C)c1cnn(C(=O)N2CCC3(CCN(Cc4cc(N5CCCC5)ccc4C(F)(F)F)C3)C2)c1 (centres unmarked) [Example 73, N-methyl-N-(1-(7-(5-(pyrrolidin-1-yl)-2-(trifluoromethyl)benzyl)-2,7-diazaspiro[4.4]nonane-2-carbonyl)-1H-pyrazol-4-yl)acetamide] | ≥ 75% | ≥ 75% |  |  |
| Cc1noc(-c2ccc(CN3CCN(C(=O)n4cc(NS(C)(=O)=O)cn4)CC3)c(C(F)(F)F)c2)n1 [Example 307, N-(1-(4-(4-(3-methyl-1,2,4-oxadiazol-5-yl)-2-(trifluoromethyl)benzyl)piperazine-1-carbonyl)-1H-pyrazol-4-yl)methanesulfonamide] | 25 to 50% | ≥ 75% |  |  |
| CC(=O)N(C)c1cnn(C(=O)N2C[C@H]3C[C@@H](N(C)Cc4ccc(N5CCCC5)cc4C(F)(F)F)C[C@H]3C2)c1 [Example 152, N-methyl-N-(1-(cis-5-(methyl(4-(pyrrolidin-1-yl)-2-(trifluoromethyl)benzyl)amino)octahydrocyclopenta[c]pyrrole-2-carbonyl)-1H-pyrazol-4-yl)acetamide] | ≥ 75% | ≥ 75% |  |  |
| CC(=O)N(C)c1cnn(C(=O)N2CC3CN(Cc4cc(Cl)cc(Cl)c4)CC3C2)c1 (centres unmarked) [Example 105, N-(1-(5-(3,5-dichlorobenzyl)octahydropyrrolo[3,4-c]pyrrole-2-carbonyl)-1H-pyrazol-4-yl)-N-methylacetamide] | ≥ 75% | ≥ 75% | ≤ 100 nM | ≤ 100 nM |
| CC(=O)N(C)c1cnn(C(=O)N2C[C@H]3C[C@@H](N(Cc4cccc(Cl)c4)C(C)=O)C[C@H]3C2)c1 [Example 170, N-(3-chlorobenzyl)-N-(cis-2-(4-(N-methylacetamido)-1H-pyrazole-1-carbonyl)octahydrocyclopenta[c]pyrrol-5-yl)acetamide] | ≥ 75% | 25 to 50% |  |  |
| CC(=O)N(C)c1cnn(C(=O)N2CC3CN(Cc4ccc(OCC(=O)N5CCCC5)cc4C(F)(F)F)CC3C2)c1 (centres unmarked) [Example 256, N-methyl-N-(1-(5-(4-(2-oxo-2-(pyrrolidin-1-yl)ethoxy)-2-(trifluoromethyl)benzyl)octahydropyrrolo [3,4-c]pyrrole-2-carbonyl)-1H-pyrazol-4-yl)acetamide] | 0 to 25% | ≥ 75% |  |  |
| CS(=O)(=O)Nc1cnn(C(=O)N2CC3CN(Cc4cc(Cl)ccc4C(F)(F)F)CC3C2)c1 (centres unmarked) [Example 275, N-(1-(5-(5-chloro-2-(trifluoromethyl)benzyl)octahydropyrrolo [3,4-c]pyrrole-2-carbonyl)-1H-pyrazol-4-yl)methanesulfonamide] | ≥ 75% | ≥ 75% | ≤ 100 nM | 100 to 1000 nM |
| CC(=O)N(C)c1cnn(C(=O)N2CC3CN(Cc4cccc(N5CCCC5)c4)CC3C2)c1 (centres unmarked) [Example 119, N-methyl-N-(1-(5-(3-(pyrrolidin-1-yl)benzyl)octahydropyrrolo[3,4-c]pyrrole-2-carbonyl)-1H-pyrazol-4-yl)acetamide] | ≥ 75% | ≥ 75% | ≤ 100 nM | ≤ 100 nM |
| CS(=O)(=O)Nc1cnn(C(=O)N2CC3CN(Cc4ccc(N5CCCC5)cc4C(F)(F)F)CC3C2)c1 (centres unmarked) [Example 279, N-(1-(5-(4-(pyrrolidin-1-yl)-2-(trifluoromethyl)benzyl)octahydropyrrolo [3,4-c]pyrrole-2-carbonyl)-1H-pyrazol-4-yl)methanesulfonamide] | ≥ 75% | ≥ 75% | ≤ 100 nM | 100 to 1000 nM |
| CN(c1cnn(C(=O)N2CCN(Cc3ccc(C(F)(F)F)cc3N3CCCC3)CC2)c1)S(C)(=O)=O [Example 218, N-methyl-N-(1-(4-(2-(pyrrolidin-1-yl)-4-(trifluoromethyl)benzyl)piperazine-1-carbonyl)-1H-pyrazol-4-yl)methanesulfonamide] | ≥ 75% | 25 to 50% | 100 to 1000 nM | 1000 to 10000 nM |
| CC(=O)N(C)c1cnn(C(=O)N2CC3CN(Cc4cccc(Cl)c4C)CC3C2)c1 (centres unmarked) [Example 103, N-(1-(5-(3-chloro-2-methylbenzyl)octahydropyrrolo[3,4-c]pyrrole-2-carbonyl)-1H-pyrazol-4-yl)-N-methylacetamide] | ≥ 75% | ≥ 75% | ≤ 100 nM | ≤ 100 nM |
| CC(=O)N(C)c1cnn(C(=O)N2C[C@H]3C[C@@H](N(C)Cc4cc(C(F)(F)F)ccc4C(F)(F)F)C[C@H]3C2)c1 [Example 140, N-(1-(cis-5-((2,5-bis(trifluoromethyl)benzyl)(methyl)amino)octahydrocyclopenta[c]pyrrole-2-carbonyl)-1H-pyrazol-4-yl)-N-methylacetamide] | ≥ 75% | ≥ 75% |  |  |
| CC(=O)N(C)c1cnn(C(=O)N2CC3CN(Cc4cc(C(F)(F)F)ccc4Cl)CC3C2)c1 (centres unmarked) [Example 106, N-(1-(5-(2-chloro-5-(trifluoromethyl)benzyl)octahydropyrrolo[3,4-c]pyrrole-2-carbonyl)-1H-pyrazol-4-yl)-N-methylacetamide] | ≥ 75% | ≥ 75% |  |  |
| CC(=O)N(C)c1cnn(C(=O)N2CC3CN(Cc4ccc(Cl)c(N5CCOCC5)c4)CC3C2)c1 (centres unmarked) [Example 129, N-(1-(5-(4-chloro-3-morpholinobenzyl)octahydropyrrolo[3,4-c]pyrrole-2-carbonyl)-1H-pyrazol-4-yl)-N-methylacetamide] | ≥ 75% | ≥ 75% |  |  |
